This note sets out measurements from ChEMBL document CHEMBL1147460, “Syntheses and SAR studies of 4-(heteroarylpiperdin-1-yl-methyl)-pyrrolidin-1-yl-acetic acid antagonists of the human CCR5 chemokine receptor” (Bioorg Med Chem Lett, 2004).

Data set [1] deals with HeLa. The data set can be described thus: Anti viral activity was determined in anti HIV-1 infectivity assay in HeLa Magi cells. Format: functional, cell-based. Particulars: Homo sapiens.
The target in data set [2] is T1, C-C chemokine receptor type 5 (Homo sapiens, UniProt P51681). The data set can be described thus: Inhibition of human C-C chemokine receptor type 5 assayed using [125I]-MIP-1 alpha as radioligand.
Data set [3] has as its system HeLa. Description: Anti viral activity in anti HIV-1 infectivity assay in HeLa Magi cells. Particulars: Homo sapiens. Format: functional.
In data set [4] the target is T1, C-C chemokine receptor type 5. Description: Inhibitory concentration against C-C chemokine receptor type 5 using [125I]-MIP-1 alpha as radioligand.
Data set [5] is described as follows: Plasma clearance in rat. It counts as ADME, organism-based. Particulars: read-out: Clp.
Data set [6] is described as follows: Half life in rat. Format: ADME, organism-based. Particulars: in vivo.
The nature of data set [7]: Volume of distribution in rat. Format: ADME, organism-based. Particulars: in vivo, read-out: Vdss.
A short description of data set [8]: Oral bioavailability in rat. It counts as ADME, organism-based. Particulars: in vivo.

T1 sequence (P51681 whole entry): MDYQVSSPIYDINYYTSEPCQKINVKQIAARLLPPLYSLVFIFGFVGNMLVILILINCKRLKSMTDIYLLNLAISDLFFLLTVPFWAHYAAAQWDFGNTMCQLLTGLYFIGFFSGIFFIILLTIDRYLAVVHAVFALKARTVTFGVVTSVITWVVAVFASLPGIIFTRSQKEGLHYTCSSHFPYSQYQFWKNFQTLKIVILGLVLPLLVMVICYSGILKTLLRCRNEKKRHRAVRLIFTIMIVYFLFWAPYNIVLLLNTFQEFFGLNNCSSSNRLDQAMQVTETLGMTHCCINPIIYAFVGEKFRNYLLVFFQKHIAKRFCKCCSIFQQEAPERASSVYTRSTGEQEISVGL

Usually IC50 stands for the concentration needed to halve the response being measured. The low end stands for higher potency, the high end for lower potency. `O=C(O)[C@@H](CC1CCC1)N1C[C@H](CN2CCC(c3[nH]c(Cc4ccccc4)nc3Cl)CC2)[C@@H](c2cccc(F)c2)C1`: the concentration for half-maximal inhibition (IC50) in the data set on HeLa [1] came to 0.13 nM; in data set [2], 0.6 nM.
Taken in the same sequence, the figures for `O=C(O)[C@@H](CC1CCC1)N1C[C@H](CN2CCC(c3c[nH]c(Cc4ccccc4)n3)CC2)[C@@H](c2ccccc2)C1` were 100 nM and 0.38 nM.
As a reminder, the IC90 is the concentration at which the effect reaches the 90% level. Read a high IC90 as a need for much substance. In the data set on HeLa [3], `O=C(O)[C@@H](C1CCCCC1)N1C[C@H](CN2CCC(c3ncc(Cc4ccccc4)s3)CC2)[C@@H](c2ccccc2)C1` came in with an IC90 of 33 nM. Also, the 50% inhibitory concentration (IC50) in data set [2] came out at 2 nM.
Taken in the same sequence, the figures for `O=C(O)[C@@H](C1CCCCC1)N1C[C@H](CN2CCC(c3cnc(-c4ccccc4)[nH]3)CC2)[C@@H](c2ccccc2)C1` were 33 nM and 6.2 nM.
For the compound `O=C(O)[C@@H](C1CCCCC1)N1C[C@H](CN2CCC(c3nc(-c4ccccc4)c[nH]3)CC2)[C@@H](c2ccccc2)C1`, the IC50 in data set [2] came to 23 nM. In other words, the double-digit nanomolar range.
Turning to `O=C(O)C(CC1CCC1)N1CC(c2ccccc2)[C@@H](CN2CCC(c3cnc(Cc4ccccc4)s3)CC2)C1` (some centres undefined), the results for the IC50 (with HeLa [1]; in data set [2]) were 0.13 nM and 0.23 nM, respectively.
In data set [4], `O=C(O)[C@@H](C1CCCCC1)N1C[C@H](CN2CCC(c3cc(-c4ccccc4)no3)CC2)[C@@H](c2ccccc2)C1` registered a concentration for half-maximal inhibition (IC50) of 18.1 nM.
As for `CCc1nc(Cc2ccccc2)oc1C1CCN(C[C@H]2CN([C@H](CC3CCC3)C(=O)O)C[C@@H]2c2cccc(F)c2)CC1`, the half-inhibitory concentration (IC50) in the data set with HeLa [1] was found to be 0.13 nM; in data set [2], 0.89 nM.
The compound `O=C(O)[C@@H](C1CCCCC1)N1C[C@H](CN2CCC(c3ncc(Cc4ccccc4)o3)CC2)[C@@H](c2ccccc2)C1` registered an IC90 in the data set on HeLa [3] of 100 nM. The half-inhibitory concentration (IC50) in data set [2] is 1.5 nM.
`O=C(O)[C@@H](C1CCCCC1)N1C[C@H](CN2CCC(c3csc(Cc4ccccc4)n3)CC2)[C@@H](c2ccccc2)C1` returned an IC90 in the data set with HeLa [3] of 33 nM. In data set [2], this compound had an IC50 of 1.3 nM.
Regarding `CCc1nc(Cc2ccccc2)sc1C1CCN(C[C@H]2CN([C@H](CC3CCC3)C(=O)O)C[C@@H]2c2cccc(F)c2)CC1`, the 50% inhibitory concentration (IC50) was determined as 0.13 nM in the data set on HeLa [1] and 0.76 nM in data set [2].
`O=C(O)C(CC1CC1)N1CC(c2ccccc2)[C@@H](CN2CCC(c3cnc(Cc4ccccc4)s3)CC2)C1` (some centres undefined): the values for the IC50 (in the data set on HeLa [1]; in data set [2]) were 0.13 nM and 0.23 nM, respectively.
Turning to `O=C(O)[C@@H](C1CCCCC1)N1C[C@H](CN2CCC(c3cnc(Cc4ccccc4)s3)CC2)[C@@H](c2ccccc2)C1`, the 90% effect concentration (IC90) with HeLa [3] turned out to be 0.14 nM. In data set [2], this compound came in with an IC50 of 0.29 nM.
The half-life is how long it takes for the measured level to halve. A lower half-life goes with rapid decline. For orientation: bioavailability means the share of a dose that reaches the circulation, judged against a reference dose that is usually intravenous. A high value points to much systemic uptake. Consider `O=C(O)[C@@H](CC1CC1)N1C[C@H](CN2CCC(c3[nH]c(Cc4ccccc4)nc3Cl)CC2)[C@@H](c2cccc(F)c2)C1`, for which the clearance in data set [5] amounted to 60.5 mL/min/kg. Also, the half-life in data set [6] was 31.8 min. Also, the IC50 in the data set on HeLa [1] came out at 0.4 nM; in data set [2], 0.7 nM. Moreover, in data set [7], the Vd is 1.05 L/kg. Moreover, in data set [8], the bioavailability is 1.1%.
Regarding `O=C(O)[C@@H](C1CCCCC1)N1C[C@H](CN2CCC(c3cnc(Cc4ccccc4)[nH]3)CC2)[C@@H](c2ccccc2)C1`, in data set [2], the half-maximal inhibitory concentration (IC50) stood at 0.67 nM.
As for `CC(C)[C@H](C(=O)O)N1C[C@H](CN2CCC(c3cnc(Cc4ccccc4)o3)CC2)[C@@H](c2ccccc2)C1`, the half-inhibitory concentration (IC50) in the data set with HeLa [1] was 300 nM; in data set [2], 3.8 nM.
In the case of `CC(C)[C@H](C(=O)O)N1C[C@H](CN2CCC(c3cnc(Cc4ccccc4)s3)CC2)[C@@H](c2ccccc2)C1`, the IC50 in the data set with HeLa [1] turned out to be 11 nM; in data set [2], 0.51 nM.
Taken in the same sequence, the figures for `O=C(O)[C@@H](CC1CCC1)N1C[C@H](CN2CCC(c3cnc(Cc4ccccc4)o3)CC2)[C@@H](c2ccccc2)C1` were 3.7 nM and 0.34 nM.
Regarding `CCc1nc(Cc2ccccc2)sc1C1CCN(C[C@H]2CN([C@@H](C(=O)O)C(C)C)C[C@@H]2c2cccc(F)c2)CC1`, the clearance in data set [5] worked out at 1.15 mL/min/kg. In addition, in data set [6], the half-life was 50.4 min. The IC50 in the data set on HeLa [1] was 0.13 nM; in data set [2], 1 nM. In data set [7], the Vd was 0.54 L/kg. In data set [8], this compound had a bioavailability of 19%.
As for `CC(C)[C@H](C(=O)O)N1C[C@H](CN2CCC(c3cnc(Cc4ccccc4)[nH]3)CC2)[C@@H](c2ccccc2)C1`, the concentration for half-maximal inhibition (IC50) in the data set on HeLa [1] came out at 300 nM; in data set [2], 7 nM.
The corresponding values for `O=C(O)[C@@H](CC1CC1)N1C[C@H](CN2CCC(c3c[nH]c(Cc4ccccc4)n3)CC2)[C@@H](c2ccccc2)C1` are 100 nM and 0.73 nM.
Regarding `O=C(O)[C@@H](C1CCCCC1)N1C[C@H](CN2CCC(c3nocc3-c3ccccc3)CC2)[C@@H](c2ccccc2)C1`, in data set [2], the concentration for half-maximal inhibition (IC50) stood at 27 nM.
For the compound `O=C(O)[C@@H](C1CCCCC1)N1C[C@H](CN2CCC(c3csc(-c4ccccc4)n3)CC2)[C@@H](c2ccccc2)C1`, the IC90 with HeLa [3] turned out to be 100 nM. Also, in data set [2], the concentration for half-maximal inhibition (IC50) was found to be 1.1 nM.
`CCc1nc(Cc2ccccc2)[nH]c1C1CCN(C[C@H]2CN([C@H](CC3CCC3)C(=O)O)C[C@@H]2c2cccc(F)c2)CC1`: the 50% inhibitory concentration (IC50) amounted to 0.4 nM in the data set on HeLa [1] and 0.57 nM in data set [2].
Regarding `O=C(O)[C@@H](CC1CC1)N1C[C@H](CN2CCC(c3cnc(Cc4ccccc4)o3)CC2)[C@@H](c2ccccc2)C1`, the results for the 50% inhibitory concentration (IC50) (in the data set on HeLa [1]; in data set [2]) were 3.7 nM and 1.6 nM, respectively.
